How the values were obtained:
Type in all cases: cell-based
Fusarium graminearum = system: Fusarium graminearum
Septoria tritici = system: Septoria tritici
Mycosphaerella fijiensis = system: Mycosphaerella fijiensis

Sequence	Antifungal activity, Fusarium graminearum (improvement compared to DmAMP1) (Fusarium graminearum)	Antifungal activity, Septoria tritici (improvement compared to DmAMP1) (Septoria tritici)	Antifungal activity, Mycosphaerella fijiensis (improvement compared to DmAMP1) (Mycosphaerella fijiensis)
DGVKLCEKASQTWSGHCGNTKHCDNQCKNWEGAKHGACHKRSGKWKCFCYFNC (Defensin like) [L7-422]	+ (key: + indicating 1- to 5-fold improvement compared to DmAMP1; ++ indicating >5- to 10-fold improvement; +++ indicating >10-fold improvement)	+ (key: + indicating 1- to 5-fold improvement compared to DmAMP1; ++ indicating >5- to 10-fold improvement; +++ indicating >10-fold improvement)	+ (key: + indicating 1- to 5-fold improvement compared to DmAMP1; ++ indicating >5- to 10-fold improvement; +++ indicating >10-fold improvement)
NLCERASKTWSGNCGNTKHCDTQCKNWEGAAHGACHKRNGKWKCFCYFNC (Defensin like) [L9-13]	++ (key: + indicating 1- to 5-fold improvement compared to DmAMP1; ++ indicating >5- to 10-fold improvement; +++ indicating >10-fold improvement)	+ (key: + indicating 1- to 5-fold improvement compared to DmAMP1; ++ indicating >5- to 10-fold improvement; +++ indicating >10-fold improvement)	+ (key: + indicating 1- to 5-fold improvement compared to DmAMP1; ++ indicating >5- to 10-fold improvement; +++ indicating >10-fold improvement)
NLCERASKTWTGNCGNTKHCDNQCKSWEGAAHGACHVRSGKHKCFCYFNC (Defensin like) [L6-39]	+++ (key: + indicating 1- to 5-fold improvement compared to DmAMP1; ++ indicating >5- to 10-fold improvement; +++ indicating >10-fold improvement)	++ (key: + indicating 1- to 5-fold improvement compared to DmAMP1; ++ indicating >5- to 10-fold improvement; +++ indicating >10-fold improvement)	+ (key: + indicating 1- to 5-fold improvement compared to DmAMP1; ++ indicating >5- to 10-fold improvement; +++ indicating >10-fold improvement)
NLCEKASKTWTGNCGNTKHCDTQCKNWEGAKHGACHVRNGKWKCFCYFNC (Defensin like) [L6-69]	+++ (key: + indicating 1- to 5-fold improvement compared to DmAMP1; ++ indicating >5- to 10-fold improvement; +++ indicating >10-fold improvement)	+++ (key: + indicating 1- to 5-fold improvement compared to DmAMP1; ++ indicating >5- to 10-fold improvement; +++ indicating >10-fold improvement)	+ (key: + indicating 1- to 5-fold improvement compared to DmAMP1; ++ indicating >5- to 10-fold improvement; +++ indicating >10-fold improvement)
NLCEKASKTWSGNCGNTKHCDNQCRSWEGAKHGACHVRNGKHKCFCYFNC (Defensin like) [L9-23]	+++ (key: + indicating 1- to 5-fold improvement compared to DmAMP1; ++ indicating >5- to 10-fold improvement; +++ indicating >10-fold improvement)	++ (key: + indicating 1- to 5-fold improvement compared to DmAMP1; ++ indicating >5- to 10-fold improvement; +++ indicating >10-fold improvement)	++ (key: + indicating 1- to 5-fold improvement compared to DmAMP1; ++ indicating >5- to 10-fold improvement; +++ indicating >10-fold improvement)
DGVKLCEKASQTWSGHCGNTKHCDNQCKNWEGAKHGACHKRNGKWKCFCYFNC [L7-434] (Defensin like)	+++ (key: + indicating 1- to 5-fold improvement compared to DmAMP1; ++ indicating >5- to 10-fold improvement; +++ indicating >10-fold improvement)	+ (key: + indicating 1- to 5-fold improvement compared to DmAMP1; ++ indicating >5- to 10-fold improvement; +++ indicating >10-fold improvement)	+ (key: + indicating 1- to 5-fold improvement compared to DmAMP1; ++ indicating >5- to 10-fold improvement; +++ indicating >10-fold improvement)
